Assay results published in patent US8470844B2, “Imidazoacridinone derivative compounds and methods for their use” (Technion Research & Development Foundation Limited, priority 2008, dated 2013).

Assays:
A549/K1.5 cells = assay: MTT cytotoxicity assay, ABCG2-overexpressing A549/K1.5 cells; format: cell-based, Human; conditions: for resistance of A549/K1.5 cells (in words): versus parental A549 cells
Protocol: Tissue culture: Human non-small cell lung cancer A549 cells and T-cell leukemia CCRF-CEM cells were grown under monolayer conditions or up to a maximal density of 10^6 cells/ml (for CCRF-CEM cells) in RPMI-1640 medium (GIBCO) supplemented with 10% fetal calf serum, 2 mM glutamine, 100 μg/ml penicillin and 100 μg/ml streptomycin (Biological Industries, Beth-Haemek, Israel) in a humid atmosphere of 5% CO2. Drug resistant A549/K1.5 cells with ABCG2 overexpression were maintained under a continuous drug selection with 1.5 μM C-1305. Bram, E. E., et al., (2007) Biochem Pharmacol 74(1), 41-53.
Cytotoxicity and growth inhibition assays: The cytotoxic activity of the various IA antitumor agents was determined using the MTT assay. Poindessous, V., et al., (2003) Clin Cancer Res 9(7), 2817-2825.
Exponentially growing cells were seeded at 5×10^3 cells/well in 24-well plates (2 ml medium/well). Following an overnight incubation, cells were exposed to different drug concentrations for 96 hours. Cellular viability was determined by adding the tetrazolium salt MTT for 4 h at 37° C., followed by solubilization of the intracellular precipitated formazan in 1 ml DMSO and absorbance was determined by a microplate reader (ASYS Hitech GmbH, Austria). Drug concentrations required to inhibit cell growth by 50% (IC50) compared with untreated controls were determined from the curves of survival versus drug concentrations using the SlideWrite software (Advanced Graphics Software, Inc., Encinitas, Calif.). Resistance folds (RF) were calculated by dividing the IC50 value of the resistant cells by that of the parental cell line. Values presented are means of at least three independent experiments, each performed in duplicates.
Quantitative evaluation of ABCG2 interaction with various IA derivatives: The extent of ABCG2-mediated resistance was expressed using the Resistance Fold (RF) parameter representing the ratio between the IC50 values of the resistant cells and parental cells. Likewise, ABCG2-dependent differential accumulation of IAs in ABCG2-overexpressing A549/K1.5 cells was compared using the ratio of IA accumulation in the presence or absence of the potent ABCG2 inhibitor FTC. This was termed the FTC-dependent Accumulation Fold (AF) and was determined for each IA at a constant IA concentration of 10 μM.

ABCG2 (A549/K1.5 cells) [1] = target: T1, ABCG2 (A549/K1.5 cells) (Homo sapiens, UniProt Q9UNQ0); assay: Flow cytometric IA accumulation in A549/K1.5 cells with or without fumitremorgin C; format: cell-based
T1 construct: Drug resistant A549/K1.5 cells with ABCG2 overexpression were maintained under a continuous drug selection with 1.5 μM C-1305; endogenous in cells; host or cells: A549/K1.5 (C-1305-selected subline of human non-small cell lung cancer A549)
T1 sequence (Q9UNQ0 1-655): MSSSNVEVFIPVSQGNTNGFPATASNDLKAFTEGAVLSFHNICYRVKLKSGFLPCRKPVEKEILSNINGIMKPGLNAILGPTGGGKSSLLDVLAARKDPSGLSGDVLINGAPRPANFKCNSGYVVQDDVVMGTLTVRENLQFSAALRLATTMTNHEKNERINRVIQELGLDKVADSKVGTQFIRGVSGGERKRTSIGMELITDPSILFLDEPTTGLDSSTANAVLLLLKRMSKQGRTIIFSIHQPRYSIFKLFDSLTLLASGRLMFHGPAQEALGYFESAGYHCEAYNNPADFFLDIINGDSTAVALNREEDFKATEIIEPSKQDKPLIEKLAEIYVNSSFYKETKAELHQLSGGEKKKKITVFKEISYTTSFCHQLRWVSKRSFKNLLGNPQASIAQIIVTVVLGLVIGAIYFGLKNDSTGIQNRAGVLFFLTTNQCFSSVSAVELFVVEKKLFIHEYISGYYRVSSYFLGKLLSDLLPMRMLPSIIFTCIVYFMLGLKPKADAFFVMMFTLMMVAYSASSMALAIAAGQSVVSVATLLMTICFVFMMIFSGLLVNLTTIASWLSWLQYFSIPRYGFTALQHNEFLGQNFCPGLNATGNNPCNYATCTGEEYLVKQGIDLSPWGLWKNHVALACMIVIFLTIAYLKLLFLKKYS
Protocol: In this assay, one ml aliquots of A549/K1.5 or CCRF-CEM cell suspensions (1×10^6 cells/ml) in growth medium containing 20 mM Hepes at pH 7.3 were distributed into 1.5 ml polypropylene Eppendorf test tubes. […] Rabindran, S. […] Alternatively, in time-course experiments, IA derivatives at a constant concentration of 10 μM were added to a CCRF-CEM cell suspension incubated at 37° C., and 1 ml aliquots were removed at variable time points up to 1 hour. Following incubation, test tubes were transferred to ice and centrifuged at 4° C. Cells were then washed twice and re-suspended in ice-cold PBS containing 1% fetal calf serum and kept in the dark at 4° C. until analysis. […] Quantitative evaluation of ABCG2 interaction with various IA derivatives: The extent of ABCG2-mediated resistance was expressed using the Resistance Fold (RF) parameter representing the ratio between the IC50 values of the resistant cells and parental cells.

ABCG2 (A549/K1.5 cells) [2] = target: T1, ABCG2 (A549/K1.5 cells); assay: Fluorescence microscopy of nuclear accumulation of IAs in A549/K1.5 cells; format: cell-based; conditions: 10 μM IA, 1 hr
Protocol: In immunofluorescence microscopy of plasma membrane targeting of ABCG2 and nuclear accumulation of IAs, cells (1×10^4/well) were seeded in 24-well plates (1 ml medium/well) and incubated for 2 days, following which some wells were supplemented with 10 μM IA-containing medium±5 μM FTC and incubated for 1 h at 37° C. Cells were then washed twice with ice-cold PBS containing 0.1% BSA and blocked for 10 min at 4° C. with PBS containing 5% BSA. Cells were then washed once with ice-cold PBS containing 0.1% BSA and incubated for 30 min at 4° C. with a Phycoerythrin-conjugated, affinity-purified 5D3 mouse anti-human ABCG2 monoclonal antibody (1:100; eBioscience). Unspecific fluorescence was determined using cells that were incubated only with a secondary Phycoerythrin (PE)-conjugated goat anti-mouse IgG (1:200; Jackson Immunoresearch Labs, West Grove, Pa.). Cells were then washed twice and subjected to fluorescence microscopy using a DMIRE2 fluorescence microscope equipped with a DC300FX camera (Leica Microsystems, Wetzlar, Germany).
In order to exclude the possibility that differential subcellular accumulation of IA derivatives is the basis of the observed difference in cytotoxicity and cellular fluorescence, A549/K1.5 cells were incubated with 10 μM of selected IA derivatives from both group A and B in the presence or absence of FTC and subjected to fluorescence microscopy.

SMILES: CCN(CC)CCNc1ccc2ncn3c4ccc(O)cc4c(=O)c1c23 [C-1311]
- IC50 (A549/K1.5 cells; ABCG2-overexpressing A549/K1.5 cells, 96 hours exposure, MTT): 2.34 ± 0.05 µM
- RF (resistance fold) (A549/K1.5 cells; IC50 of A549/K1.5 cells divided by IC50 of parental A549 cells): 8.70
- resistance of A549/K1.5 cells (in words) (A549/K1.5 cells): prominent resistance
- resistance of A549/K1.5 cells (in words) (A549/K1.5 cells; listed as Symadex): marked drug resistance
- ABCG2-mediated extrusion / interaction with ABCG2 (in words) (ABCG2 (A549/K1.5 cells) [1]): extruded by ABCG2-overexpressing lung cancer A549/K1.5 cells
- intracellular accumulation (fluorescence microscopy) (ABCG2 (A549/K1.5 cells) [2]; absence of FTC): no apparent intracellular accumulation
- nuclear accumulation (fluorescence microscopy) (ABCG2 (A549/K1.5 cells) [2]; presence of 5 μM FTC): marked restoration of nuclear accumulation
